Data reported in patent US8546381B2, “Bridged heterocyclic compounds and methods of use” (Medivation Technologies, Inc., priority 2008, dated 2013).

How the values were obtained:
[1] = target: T1, human recombinant adrenergic α2B receptor (Homo sapiens, UniProt P18089); test: Adrenergic α2B radioligand binding ([3H]Rauwolscine); conditions: 1 μM; read-out: Adrenergic α2B, inhibition of ligand binding (1 μM)
T1 construct: expressed in transfected cells; host or cells: CHO-K1 cells
T1 sequence (P18089 1-450): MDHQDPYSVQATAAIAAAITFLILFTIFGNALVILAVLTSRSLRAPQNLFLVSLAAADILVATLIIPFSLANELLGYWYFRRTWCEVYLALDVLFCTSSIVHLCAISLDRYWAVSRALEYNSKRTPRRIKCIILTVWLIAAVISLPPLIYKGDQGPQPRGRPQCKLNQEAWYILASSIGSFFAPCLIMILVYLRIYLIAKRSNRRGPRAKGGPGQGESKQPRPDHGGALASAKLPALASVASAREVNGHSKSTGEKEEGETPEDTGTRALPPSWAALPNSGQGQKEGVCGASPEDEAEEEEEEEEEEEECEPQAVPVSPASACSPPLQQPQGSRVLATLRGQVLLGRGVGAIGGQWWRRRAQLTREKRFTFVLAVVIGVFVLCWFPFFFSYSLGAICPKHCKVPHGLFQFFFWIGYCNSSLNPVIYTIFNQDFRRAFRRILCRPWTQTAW
Protocol: To evaluate in radioligand binding assays the activity of compounds of the invention, human recombinant adrenergic α2B receptor expressed in Chinese hamster ovary (CHO-K1) cells (Uhlen S et al. Eur J. Pharmacol. 343(1):93, 1998) in a modified Tris-HCl buffer (50 mM Tris-HCl, pH 7.4, 12.5 mM MgCl2, 1 mM EDTA, 0.2% BSA) was used. Compounds of the invention were incubated with 2.5 nM [^3H]Rauwolscine for 60 minutes at 25° C. Non-specific binding was estimated in the presence of 10 μM Prozosin. Receptor proteins were filtered and washed, the filters were then counted to determine [^3H]Rauwolscine specifically bound. Compounds were screened at 1 μM or lower, using 1% DMSO as vehicle. Biochemical assay results are presented as the percent inhibition of specific binding in Table 3.

[2] = target: T2, human recombinant histamine H2 receptor (Homo sapiens, UniProt P25021); test: Histamine H2 radioligand binding ([125I]Aminopotentidine); conditions: compound at 1 μM; inhibition of specific [125I]Aminopotentidine binding; read-out: Histamine Binding (1 μM) H2, Percentage Inhibition
T2 construct: expressed in transfected cells; host or cells: CHO-K1 cells
T2 sequence (P25021 whole entry): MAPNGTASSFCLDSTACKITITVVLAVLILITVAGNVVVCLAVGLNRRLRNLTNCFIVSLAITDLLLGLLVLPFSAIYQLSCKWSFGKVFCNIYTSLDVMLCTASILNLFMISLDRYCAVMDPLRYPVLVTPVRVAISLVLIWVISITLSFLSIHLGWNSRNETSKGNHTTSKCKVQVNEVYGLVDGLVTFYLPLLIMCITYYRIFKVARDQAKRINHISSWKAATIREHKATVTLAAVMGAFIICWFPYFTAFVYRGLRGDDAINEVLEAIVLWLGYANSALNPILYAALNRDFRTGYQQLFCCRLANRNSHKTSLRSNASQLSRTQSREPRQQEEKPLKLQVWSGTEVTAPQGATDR
In short: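 CHO-K1 membranes expressing the receptor were incubated in 50 mM phosphate buffer, pH 7.4, with 0.1 nM [125I]aminopotentidine for 120 min at 25°C; 3 μM tiotidine defined non-specific binding.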

[3] = target: T3, human recombinant dopamine D2L receptor (Homo sapiens, UniProt P14416); test: Dopamine D2L radioligand binding ([3H]Spiperone); conditions: read-out: Dopamine (1 μM) D2L, inhibition of ligand binding
T3 construct: expressed in transfected cells; host or cells: CHO cells
T3 sequence (P14416 whole entry): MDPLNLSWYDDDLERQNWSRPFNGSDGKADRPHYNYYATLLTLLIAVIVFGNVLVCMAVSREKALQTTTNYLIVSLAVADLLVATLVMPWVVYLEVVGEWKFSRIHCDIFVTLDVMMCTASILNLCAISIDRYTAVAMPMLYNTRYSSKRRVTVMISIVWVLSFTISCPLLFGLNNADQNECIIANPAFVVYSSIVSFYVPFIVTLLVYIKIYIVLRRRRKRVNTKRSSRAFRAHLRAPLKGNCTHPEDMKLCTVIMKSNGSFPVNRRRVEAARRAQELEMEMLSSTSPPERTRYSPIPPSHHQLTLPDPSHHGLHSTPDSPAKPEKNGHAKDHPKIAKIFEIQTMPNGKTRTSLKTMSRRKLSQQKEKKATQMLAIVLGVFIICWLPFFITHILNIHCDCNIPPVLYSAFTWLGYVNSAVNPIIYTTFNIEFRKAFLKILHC
In short: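 Receptor expressed in CHO cells, in Tris-HCl pH 7.4 buffer with 150 mM NaCl. Binding used 0.16 nM [3H]spiperone for 120 min at 25 °C, with non-specific binding defined by 10 μM haloperidol and filtration counting.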

[4] = target: T4, human recombinant adrenergic α2A receptor (Homo sapiens, UniProt P08913); test: Adrenergic α2A radioligand binding ([3H]MK-912); conditions: 1 μM; read-out: Adrenergic α2A, inhibition of ligand binding (1 μM)
T4 construct: expressed in transfected cells; host or cells: insect Sf9 cells
T4 sequence (P08913 1-465): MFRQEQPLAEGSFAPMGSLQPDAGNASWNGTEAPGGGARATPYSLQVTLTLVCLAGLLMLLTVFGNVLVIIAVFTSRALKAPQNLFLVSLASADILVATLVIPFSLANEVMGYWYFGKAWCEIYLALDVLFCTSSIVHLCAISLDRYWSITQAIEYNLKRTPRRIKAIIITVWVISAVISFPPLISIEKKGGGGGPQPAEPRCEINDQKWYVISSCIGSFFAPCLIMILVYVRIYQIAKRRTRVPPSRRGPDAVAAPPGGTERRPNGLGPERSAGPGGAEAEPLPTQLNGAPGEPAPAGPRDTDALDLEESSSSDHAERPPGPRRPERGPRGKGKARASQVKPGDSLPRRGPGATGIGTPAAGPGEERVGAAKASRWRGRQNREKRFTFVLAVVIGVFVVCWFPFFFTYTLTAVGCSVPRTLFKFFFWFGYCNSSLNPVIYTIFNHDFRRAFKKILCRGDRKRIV
Protocol: To evaluate in radioligand binding assays the activity of compounds of the invention, human recombinant adrenergic α2A receptor expressed in insect Sf9 cells (Uhlen S et al. J Pharmacol Exp Ther. 271:1558, 1994) in a modified Tris-HCl buffer (50 mM Tris-HCl, pH 7.4, 12.5 mM MgCl2, 2 mM EDTA) was used. Compounds of invention were incubated with 1 nM [^3H]MK-912 for 60 minutes at 25° C. MK912 is (2S-trans)-1,3,4,5′,6,6′,7,12b-octahydro-1′,3′-dimethyl-spiro[2H-benzofuro[2,3-a]quinolizine-2,4′(1′H) -pyrimidin]-2′(3′H)-one hydrochloride Non-specific binding was estimated in the presence of 10 μM WB-4101 (2-(2,6-Dimethoxyphenoxyethyl)aminomethyl-1,4-benzodioxane hydrochloride). Receptor proteins were filtered and washed, the filters were then counted to determine [^3H]MK-912 specifically bound. Compounds were screened at 1 μM or lower, using 1% DMSO as vehicle. Biochemical assay results are presented as the percent inhibition of specific binding in Table 3.

| Compound | inhibition at 1 µM [1] | inhibition at 1 µM [2] | inhibition at 1 µM [3] | inhibition at 1 µM [4] |
| --- | --- | --- | --- | --- |
| CN1[C@@H]2CC[C@H]1c1c(n(CC(=O)N3CCCCC3)c3ccccc13)C2 [Compound 101] | 76% | 19% | 10% | 18% |
| Cc1ccc(CCn2c3c(c4ccccc42)[C@@H]2CC[C@H](C3)N2C)cn1 [Compound 102] | 42% | 3% | -1% | 4% |
| Cc1ccc2c(c1)c1c(n2CCC#N)CC2CCC1N2C (stereo not drawn) [Compound 103] | 94% | 1% | 4% | 57% |
| CN1C2CCC1c1c(n(CCC#N)c3ccc(Cl)cc13)C2 (stereo not drawn) [Compound 107] | 57% | -4% | -5% | 42% |
| CN1C2CCC1c1c(n(CC(=O)c3ccccc3)c3ccc(Cl)cc13)C2 (stereo not drawn) [Compound 110] | 92% | 27% | 14% | 48% |
| CN1C2CCC1c1c(n(CC(=O)c3ccc(Cl)cc3)c3ccc(Cl)cc13)C2 (stereo not drawn) [Compound 111] | 96% | 33% | 6% | 89% |
| Cc1ccc2c(c1)c1c(n2CCc2nc(-c3ccccc3)cs2)CC2CCC1N2C (stereo not drawn) [Compound 114] | 107% | 10% | 11% | 46% |
| C/C(=C\n1c2c(c3cc(C)ccc31)C1CCC(C2)N1C)c1ccc(Cl)cc1 (stereo not drawn) [Compound 116] | 95% | 81% | -2% | 83% |
| C/C(=C/n1c2c(c3ccccc31)[C@@H]1CC[C@H](C2)N1C)c1ccc(F)cc1 [Compound 121] | 100% | 21% | 19% | 55% |
| C/C(=C\n1c2c(c3cc(Cl)ccc31)C1CCC(C2)N1C)c1ccc(F)cc1 (stereo not drawn) [Compound 123] | 103% | 93% | 80% | 95% |
| C/C(=C\n1c2c(c3cc(C)ccc31)C1CCC(C2)N1C)c1ccc(F)cc1 (stereo not drawn) [Compound 124] | 101% | 79% | 33% | 91% |
| C/C(=C\n1c2c(c3cc(Cl)ccc31)C1CCC(C2)N1C)c1ccc(Cl)cc1 (stereo not drawn) [Compound 125] | 103% | 96% | 5% | 92% |
| COc1ccc(/C(C)=C/n2c3c(c4cc(Cl)ccc42)C2CCC(C3)N2C)cc1F (stereo not drawn) [Compound 136] | 87% | 100% | 11% | 91% |
| CN1C2CCC1c1c(n(C#Cc3ccc(F)cc3)c3ccc(Cl)cc13)C2 (stereo not drawn) [Compound 138] | 109% | 70% | 42% | 95% |
| Cc1ccc(C#Cn2c3c(c4cc(Cl)ccc42)C2CCC(C3)N2C)cn1 (stereo not drawn) [Compound 139] | 115% | 34% | -4% | 93% |
| Cc1ccc2c(c1)c1c(n2C#Cc2ccc(F)cc2)CC2CCC1N2C (stereo not drawn) [Compound 141] | 95% | 25% | -4% | 61% |
| CN1C2CCC1c1c(n(C#Cc3ccc(Cl)cc3)c3ccc(Cl)cc13)C2 (stereo not drawn) [Compound 142] | 95% | 71% | 0% | 82% |
| COc1ccc(C(C)(O)Cn2c3c(c4cc(Cl)ccc42)C2CCC(C3)N2C)cc1F (stereo not drawn) [Compound 160] | 80% | 22% | 7% | 63% |
| COc1ccc(C(C)(O)Cn2c3c(c4cc(C)ccc42)C2CCC(C3)N2C)cc1F (stereo not drawn) [Compound 161] | 95% | 20% | 12% | 55% |
| Cc1ccc2c(c1)c1c(n2C(=O)Cc2ccc(Cl)cc2)CC2CCC1N2C (stereo not drawn) [Compound 162] | 83% | 47% | 2% | 59% |
| C/C(=C\n1c2c(c3cc(C)ccc31)C1CCC(C2)N1C)c1ccc(Cl)cc1Cl (stereo not drawn) [Compound 163] | 104% | 66% | -16% | 95% |
